Active and inactive are the calls of the source. No rule for the calls is given here.
System: CCRIS mutagenicity, Ames/micronucleus/aberration tests
Assay: CCRIS mutagenicity studies
[1] = Test System: AMES SALMONELLA TYPHIMURIUM, Strain/Indicator: TA98, Metabolic Activation: NONE, Method: PREINCUBATION
[2] = Test System: AMES SALMONELLA TYPHIMURIUM, Strain/Indicator: TA100, Metabolic Activation: NONE, Method: PREINCUBATION
[3] = Test System: AMES SALMONELLA TYPHIMURIUM, Strain/Indicator: TA98, Metabolic Activation: NONE, Method: STANDARD PLATE
[4] = Test System: AMES SALMONELLA TYPHIMURIUM, Strain/Indicator: TA100, Metabolic Activation: NONE, Method: STANDARD PLATE

With `CCCCCCCCC1OC1CCCCCCCC(=O)OCC(CC)CCCC` (stereo not drawn) the mutagenic call (Test System: AMES SALMONELLA TYPHIMURIUM, Strain/Indicator: TA97, Metabolic Activation: HAMSTER, LIVER, S-9, AROCLOR 1254 (10% & 30%), Method: PREINCUBATION) was “inactive; negative”, the mutagenic call (Test System: AMES SALMONELLA TYPHIMURIUM, Strain/Indicator: TA97, Metabolic Activation: NONE, Method: PREINCUBATION) was “inactive; negative” and the mutagenic call (Test System: AMES SALMONELLA TYPHIMURIUM, Strain/Indicator: TA97, Metabolic Activation: RAT, LIVER, S-9, AROCLOR 1254 (10% & 30%), Method: PREINCUBATION) was “inactive; negative”. For the same molecule, the mutagenic call (Test System: AMES SALMONELLA TYPHIMURIUM, Strain/Indicator: TA98, Metabolic Activation: HAMSTER, LIVER, S-9, AROCLOR 1254 (10% & 30%), Method: PREINCUBATION) was “inactive; negative”, the mutagenic call [1] was “inactive; negative” and the mutagenic call (Test System: AMES SALMONELLA TYPHIMURIUM, Strain/Indicator: TA98, Metabolic Activation: RAT, LIVER, S-9, AROCLOR 1254 (10% & 30%), Method: PREINCUBATION) was “inactive; negative”. For the same molecule, the mutagenic call (Test System: AMES SALMONELLA TYPHIMURIUM, Strain/Indicator: TA100, Metabolic Activation: HAMSTER, LIVER, S-9, AROCLOR 1254 (10% & 30%), Method: PREINCUBATION) was “inactive; negative”, the mutagenic call [2] was “inactive; negative” and the mutagenic call (Test System: AMES SALMONELLA TYPHIMURIUM, Strain/Indicator: TA100, Metabolic Activation: RAT, LIVER, S-9, AROCLOR 1254 (10% & 30%), Method: PREINCUBATION) was “inactive; negative”. The mutagenic call (Test System: AMES SALMONELLA TYPHIMURIUM, Strain/Indicator: TA1535, Metabolic Activation: HAMSTER, LIVER, S-9, AROCLOR 1254 (10% & 30%), Method: PREINCUBATION) was “inactive; negative”, the mutagenic call (Test System: AMES SALMONELLA TYPHIMURIUM, Strain/Indicator: TA1535, Metabolic Activation: NONE, Method: PREINCUBATION) was “inactive; negative” and the mutagenic call (Test System: AMES SALMONELLA TYPHIMURIUM, Strain/Indicator: TA1535, Metabolic Activation: RAT, LIVER, S-9, AROCLOR 1254 (10% & 30%), Method: PREINCUBATION) was “inactive; negative”.

For `O=C1C(=O)c2cccc3cccc1c23`, the mutagenic call (Test System: AMES SALMONELLA TYPHIMURIUM, Strain/Indicator: TA98, Metabolic Activation: HAMSTER, LIVER, S-9, AROCLOR 1254, Method: STANDARD PLATE) was “inactive; negative”, the mutagenic call [3] was “active; positive” and the mutagenic call (Test System: AMES SALMONELLA TYPHIMURIUM, Strain/Indicator: TA98, Metabolic Activation: RAT, LIVER, S-9, AROCLOR 1254, Method: STANDARD PLATE) was “active; positive”. For the same molecule, the mutagenic call (Test System: AMES SALMONELLA TYPHIMURIUM, Strain/Indicator: TA100, Metabolic Activation: HAMSTER, LIVER, S-9, AROCLOR 1254, Method: STANDARD PLATE) was “active; positive”, the mutagenic call [4] was “inactive; negative” and the mutagenic call (Test System: AMES SALMONELLA TYPHIMURIUM, Strain/Indicator: TA100, Metabolic Activation: RAT, LIVER, S-9, AROCLOR 1254, Method: STANDARD PLATE) was “inactive; negative”. The mutagenic call (Test System: MOUSE LYMPHOMA, Strain/Indicator: L5178Y (TK+/TK-), Metabolic Activation: NONE, Method: SUSPENSION/PLATE) was “active; positive. reevaluation of results: equivocal” and the mutagenic call (Test System: MOUSE LYMPHOMA, Strain/Indicator: L5178Y (TK+/TK-), Metabolic Activation: RAT, LIVER, S-9, AROCLOR 1254, Method: SUSPENSION/PLATE) was “active; positive. reevaluation of results: equivocal”.

In the case of `Cc1cccc(Nc2cc(Cl)nc(SCC(=O)O)n2)c1C`, the mutagenic call (Test System: AMES SALMONELLA TYPHIMURIUM, Strain/Indicator: TA98, Metabolic Activation: NONE) is reported as “inactive; negative”, the mutagenic call (Test System: AMES SALMONELLA TYPHIMURIUM, Strain/Indicator: TA98, Metabolic Activation: RAT, LIVER, S-9, AROCLOR 1254) is reported as “inactive; negative” and the mutagenic call (Test System: AMES SALMONELLA TYPHIMURIUM, Strain/Indicator: TA102, Metabolic Activation: NONE) is reported as “inactive; negative”. The mutagenic call (Test System: AMES SALMONELLA TYPHIMURIUM, Strain/Indicator: TA102, Metabolic Activation: RAT, LIVER, S-9, AROCLOR 1254) was “inactive; negative”, the mutagenic call (Test System: AMES SALMONELLA TYPHIMURIUM, Strain/Indicator: TA104, Metabolic Activation: NONE) was “inactive; negative” and the mutagenic call (Test System: AMES SALMONELLA TYPHIMURIUM, Strain/Indicator: TA104, Metabolic Activation: RAT, LIVER, S-9, AROCLOR 1254) was “inactive; negative”. For the same molecule, the mutagenic call (Test System: UDS RAT HEPATOCYTES, Strain/Indicator: BROMODEOXYURIDINE INCORP, Metabolic Activation: NONE) was “active; positive”, the mutagenic call (Test System: UDS RAT HEPATOCYTES, Strain/Indicator: BROMODEOXYURIDINE INCORP, Metabolic Activation: NONE, Method: FLOW CYTOMETRIC ANALYSIS) was “inactive; negative” and the mutagenic call (Test System: UDS RAT HEPATOCYTES, Strain/Indicator: THY INCORP, Metabolic Activation: NONE, Method: AUTORADIOGRAPHY) was “inactive; negative”. For the same molecule, the mutagenic call (Test System: UDS RAT HEPATOCYTES, Strain/Indicator: THY INCORP, Metabolic Activation: NONE, Method: LIQUID SCINTILLATION COUNTING) was “active; positive”.

For `Nc1ccc2[nH]c3ccccc3c2c1`, the mutagenic call [3] was “inactive; negative”, the mutagenic call (Test System: AMES SALMONELLA TYPHIMURIUM, Strain/Indicator: TA98, Metabolic Activation: RAT LIVER S-9, AROCLOR 1254, Method: STANDARD PLATE) was “active; positive” and the mutagenic call (Test System: AMES SALMONELLA TYPHIMURIUM, Strain/Indicator: TA98, Metabolic Activation: RAT, LIVER, S-9, PHENOBARBITAL, Method: STANDARD PLATE) was “active; positive”. For the same molecule, the mutagenic call [4] was “inactive; negative”, the mutagenic call (Test System: AMES SALMONELLA TYPHIMURIUM, Strain/Indicator: TA100, Metabolic Activation: RAT LIVER S-9, AROCLOR 1254, Method: STANDARD PLATE) was “inactive; negative” and the mutagenic call (Test System: AMES SALMONELLA TYPHIMURIUM, Strain/Indicator: TA100, Metabolic Activation: RAT, LIVER, S-9, PHENOBARBITAL, Method: STANDARD PLATE) was “inactive; negative”. The mutagenic call (Test System: AMES SALMONELLA TYPHIMURIUM, Strain/Indicator: TA1537, Metabolic Activation: NONE, Method: STANDARD PLATE) was “inactive; negative”, the mutagenic call (Test System: AMES SALMONELLA TYPHIMURIUM, Strain/Indicator: TA1537, Metabolic Activation: RAT, LIVER, S-9, PHENOBARBITAL, Method: STANDARD PLATE) was “inactive; negative” and the mutagenic call (Test System: AMES SALMONELLA TYPHIMURIUM, Strain/Indicator: TA1538, Metabolic Activation: NONE, Method: STANDARD PLATE) was “inactive; negative”. The mutagenic call (Test System: AMES SALMONELLA TYPHIMURIUM, Strain/Indicator: TA1538, Metabolic Activation: RAT, LIVER, S-9, PHENOBARBITAL, Method: STANDARD PLATE) was “active; positive”, the mutagenic call (Test System: AMES SALMONELLA TYPHIMURIUM, Strain/Indicator: TA1977, Metabolic Activation: NONE, Method: STANDARD PLATE) was “inactive; negative” and the mutagenic call (Test System: AMES SALMONELLA TYPHIMURIUM, Strain/Indicator: TA1977, Metabolic Activation: RAT, LIVER, S-9, PHENOBARBITAL, Method: STANDARD PLATE) was “inactive; negative”.

In the case of `O=C1c2ccccc2C(=O)c2c(O)cccc21`, the mutagenic call [1] is reported as “inactive; negative”, the mutagenic call (Test System: AMES SALMONELLA TYPHIMURIUM, Strain/Indicator: TA98, Metabolic Activation: RAT, LIVER, S-9, AROCLOR 1254 (10%), Method: PREINCUBATION) is reported as “inactive; negative” and the mutagenic call (Test System: AMES SALMONELLA TYPHIMURIUM, Strain/Indicator: TA98, Metabolic Activation: RAT, LIVER, S-9, AROCLOR 1254, Method: PREINCUBATION) is reported as “inactive; negative”. The mutagenic call [2] was “inactive; negative”, the mutagenic call (Test System: AMES SALMONELLA TYPHIMURIUM, Strain/Indicator: TA100, Metabolic Activation: RAT, LIVER, S-9, AROCLOR 1254 (10%), Method: PREINCUBATION) was “inactive; negative” and the mutagenic call (Test System: AMES SALMONELLA TYPHIMURIUM, Strain/Indicator: TA100, Metabolic Activation: RAT, LIVER, S-9, AROCLOR 1254, Method: PREINCUBATION) was “inactive; negative”. The mutagenic call (Test System: AMES SALMONELLA TYPHIMURIUM, Strain/Indicator: TA102, Metabolic Activation: NONE, Method: PREINCUBATION) was “inactive; negative”, the mutagenic call (Test System: AMES SALMONELLA TYPHIMURIUM, Strain/Indicator: TA102, Metabolic Activation: RAT, LIVER, S-9, AROCLOR 1254 (10%), Method: PREINCUBATION) was “inactive; negative” and the mutagenic call (Test System: AMES SALMONELLA TYPHIMURIUM, Strain/Indicator: TA1537, Metabolic Activation: NONE, Method: PREINCUBATION) was “active; positive”. The mutagenic call (Test System: AMES SALMONELLA TYPHIMURIUM, Strain/Indicator: TA1537, Metabolic Activation: RAT, LIVER, S-9, AROCLOR 1254, Method: PREINCUBATION) was “active; positive” and the mutagenic call (Test System: UDS RODENT HEPATOCYTES, Strain/Indicator: THY INCORP, Metabolic Activation: NONE) was “active; positive”.

Source: PubChem BioAssay AID1259407 (Chemical Carcinogenesis Research Information System (CCRIS), 2018)
